# Reference: ChEMBL document CHEMBL1142030, “Identification of small molecule inhibitors of the hepatitis C virus RNA-dependent RNA polymerase from a pyrrolidine combinatorial mixture” (Bioorg Med Chem Lett, 2005)
# Several values for one entry are separate records, joined by “and”; a condition that tells them apart may be missing. Equal entries are not always repeated.
# Target: RNA-directed RNA polymerase (Hepacivirus hominis, UniProt O39930)
# Assay: Inhibitory concentration against Hepatitis C virus RNA dependent RNA polymerase Nonstructural protein 5B
# Chain of RNA-directed RNA polymerase (O39930 whole entry): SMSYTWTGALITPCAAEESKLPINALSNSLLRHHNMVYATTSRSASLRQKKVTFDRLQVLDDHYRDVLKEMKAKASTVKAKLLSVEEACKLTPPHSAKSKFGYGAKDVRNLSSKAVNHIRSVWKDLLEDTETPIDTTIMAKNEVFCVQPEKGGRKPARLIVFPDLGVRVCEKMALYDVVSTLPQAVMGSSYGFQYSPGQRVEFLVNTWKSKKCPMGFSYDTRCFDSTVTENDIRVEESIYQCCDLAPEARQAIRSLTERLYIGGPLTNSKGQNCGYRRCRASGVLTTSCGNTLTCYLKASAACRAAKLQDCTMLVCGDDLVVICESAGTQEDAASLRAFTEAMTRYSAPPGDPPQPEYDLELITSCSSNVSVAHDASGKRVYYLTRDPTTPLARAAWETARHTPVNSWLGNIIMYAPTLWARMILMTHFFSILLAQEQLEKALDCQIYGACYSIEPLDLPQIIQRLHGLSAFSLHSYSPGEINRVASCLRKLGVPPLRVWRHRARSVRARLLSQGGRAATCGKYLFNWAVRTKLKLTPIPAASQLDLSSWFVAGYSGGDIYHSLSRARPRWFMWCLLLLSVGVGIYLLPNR
row,IC50,Structure (SMILES)
1,600 nM,CC(C)C[C@@]1(C(=O)O)C[C@H](C(=O)O)[C@H](c2cccs2)N1C(=O)c1cccc(C(F)(F)F)c1
2,11400 nM,CC(C)C[C@@]1(C(=O)O)C[C@H](C(=O)O)[C@H](c2cccs2)N1C(=O)c1ccccc1
3,1000 nM,Cc1ccc([C@H]2[C@@H](C(=O)O)C[C@@](CC(C)C)(C(=O)O)N2C(=O)c2ccc(C(F)(F)F)cc2)cc1
4,900 nM,CC(C)C[C@@]1(C(=O)O)C[C@H](C(=O)O)[C@H](c2ccc(Cl)cc2)N1C(=O)c1ccc(C(F)(F)F)cc1
5,500 nM,CC(C)C[C@@]1(C(=O)O)C[C@H](C(=O)O)[C@H](C(C)C)N1C(=O)c1ccc(C(F)(F)F)cc1
6,400 nM,CC(C)C[C@@]1(C(=O)O)C[C@H](C(=O)O)[C@H](c2nccs2)N1C(=O)c1ccc(C(F)(F)F)cc1
7,300 nM and 190 nM,CC(C)C[C@@]1(C(=O)O)C[C@H](C(=O)O)[C@H](c2cccs2)N1C(=O)c1ccc(C(F)(F)F)cc1
8,1900 nM,O=C(O)[C@H]1C[C@@](Cc2ccccc2)(C(=O)O)N(C(=O)c2ccc(C(F)(F)F)cc2)[C@H]1c1ccccc1
9,18000 nM,"CC(C)C[C@@]1(C(=O)O)C[C@H](C(=O)O)C(c2cccs2)N1C(=O)c1ccc(C(F)(F)F)cc1 (single isomer, unassigned)"
10,12000 nM,O=C(O)[C@H]1C[C@@H](C(=O)O)N(C(=O)c2ccc(Cl)c(Cl)c2)C1 (racemic)
11,1700 nM,CC(C)C[C@@]1(C(=O)O)C[C@H](C(=O)O)[C@H](c2cccs2)N1C(=O)c1ccc(Cl)cc1
12,5100 nM,COc1ccccc1[C@H]1[C@@H](C(=O)O)C[C@@](CC(C)C)(C(=O)O)N1C(=O)c1ccc(C(F)(F)F)cc1
13,800 nM,CC(C)C[C@@]1(C(=O)O)C[C@H](C(=O)O)[C@H](c2ccco2)N1C(=O)c1ccc(C(F)(F)F)cc1
14,700 nM,CC(C)C[C@@]1(C(=O)O)C[C@H](C(=O)O)[C@H](c2ccccn2)N1C(=O)c1ccc(C(F)(F)F)cc1
15,3300 nM,CCCC[C@@]1(C(=O)O)C[C@H](C(=O)O)[C@H](c2ccccc2)N1C(=O)c1ccc(C(F)(F)F)cc1
16,700 nM,CC(C)C[C@@]1(C(=O)O)C[C@H](C(=O)O)[C@H](c2cccs2)N1C(=O)c1cccc2ccccc12
17,3200 nM,CC(C)C[C@@]1(C(=O)O)C[C@H](C(=O)O)[C@H](c2cccs2)N1C(=O)c1ccc([N+](=O)[O-])cc1
18,700 nM,CC(C)C[C@@]1(C(=O)O)C[C@H](C(=O)O)[C@H](c2ccccc2)N1C(=O)c1ccc(C(F)(F)F)cc1
19,7600 nM,O=C(O)[C@H]1C[C@@H](C(=O)O)N(C(=O)c2ccc(C(F)(F)F)cc2)C1 (racemic)
20,600 nM,CC(C)C[C@@]1(C(=O)O)C[C@H](C(=O)O)[C@H](c2cccs2)N1C(=O)c1ccc(Cl)c(Cl)c1

row,Structure (SMILES),IC50
1,CCCCCCC(=O)N1[C@@H](c2cccs2)[C@@H](C(=O)O)C[C@@]1(CC(C)C)C(=O)O,> 20000 nM
2,NCCC[C@@]1(C(=O)O)C[C@H](C(=O)O)[C@H](c2ccccc2)N1C(=O)c1ccc(C(F)(F)F)cc1,> 20000 nM
3,O=C(O)[C@H]1C[C@@](Cc2ccc(O)cc2)(C(=O)O)N(C(=O)c2ccc(C(F)(F)F)cc2)[C@H]1c1ccccc1,> 20000 nM
4,C[C@@]1(C(=O)O)C[C@H](C(=O)O)[C@H](c2ccccc2)N1C(=O)c1ccc(C(F)(F)F)cc1,> 20000 nM
5,O=C(O)CC[C@@]1(C(=O)O)C[C@H](C(=O)O)[C@H](c2ccccc2)N1C(=O)c1ccc(C(F)(F)F)cc1,> 20000 nM
6,CC(C)C[C@@]1(C(=O)O)C[C@H](C(=O)O)[C@H](c2cccs2)N1C(=O)c1ccncc1,> 20000 nM
7,CC(C)C[C@@]1(C(=O)O)C[C@H](C(=O)O)[C@H](c2cccs2)N1C(=O)c1ccccc1C(F)(F)F,> 20000 nM
